Measured values reported in patent publication US9682960B2 (priority 2013, dated 2017).
Values joined by “and” are separate entries in the source; they are usually repeats but may differ in a detail not shown here. Identical values can stand only once. Like-named read-outs stand apart in the source and are kept apart here.

Legend:
[1] = molecular target: Human Androgen Receptor (Homo sapiens (Human), UniProt P10275); assay: Androgen receptor assay: [3H]R1881 displacement, cytosol of HEK-293 cells transfected with hAR (hydroxylapatite assay); assay type: binding; conditions: for Human Androgen Receptor Binding RBA (%) R1881 = 100: relative binding affinity
Human Androgen Receptor, sequence (P10275 whole entry): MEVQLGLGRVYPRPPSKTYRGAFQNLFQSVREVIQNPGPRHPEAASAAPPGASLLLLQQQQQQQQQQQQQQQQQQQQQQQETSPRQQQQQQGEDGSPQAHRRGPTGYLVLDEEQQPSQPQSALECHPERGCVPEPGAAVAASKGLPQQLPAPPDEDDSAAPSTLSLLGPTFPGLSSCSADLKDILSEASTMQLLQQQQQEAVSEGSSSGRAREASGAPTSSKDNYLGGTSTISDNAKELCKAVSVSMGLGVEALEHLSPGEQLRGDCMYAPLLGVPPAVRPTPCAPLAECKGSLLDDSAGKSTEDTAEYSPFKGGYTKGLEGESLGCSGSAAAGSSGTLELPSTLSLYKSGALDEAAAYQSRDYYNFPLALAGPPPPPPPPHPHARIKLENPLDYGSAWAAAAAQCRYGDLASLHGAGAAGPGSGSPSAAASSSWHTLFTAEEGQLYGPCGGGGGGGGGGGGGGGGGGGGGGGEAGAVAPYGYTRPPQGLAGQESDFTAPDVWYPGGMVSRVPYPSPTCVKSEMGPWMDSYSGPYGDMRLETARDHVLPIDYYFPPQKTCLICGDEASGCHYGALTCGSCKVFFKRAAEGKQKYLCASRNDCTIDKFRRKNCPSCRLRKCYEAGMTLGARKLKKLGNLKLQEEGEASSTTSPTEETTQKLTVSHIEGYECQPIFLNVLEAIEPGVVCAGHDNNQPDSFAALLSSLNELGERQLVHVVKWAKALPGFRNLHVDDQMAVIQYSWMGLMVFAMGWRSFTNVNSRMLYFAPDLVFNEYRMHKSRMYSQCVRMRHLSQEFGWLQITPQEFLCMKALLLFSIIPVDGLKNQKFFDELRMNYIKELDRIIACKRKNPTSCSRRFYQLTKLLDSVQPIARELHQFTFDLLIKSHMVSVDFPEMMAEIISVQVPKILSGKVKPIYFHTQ

[2] = system: castrated (CX) immature male rats; assay: Systemic androgenic (agonistic) activity in orchidectomized (CX) immature male rats; assay type: in vivo, rat
[3] = system: Shionogi mouse mammary carcinoma cells; assay: In vitro androgenic/antiandrogenic activity: proliferation of Shionogi cells with or without DHT; assay type: cell-based; conditions: for IC50: Mus musculus
[4] = 0.1 mg/rat/po, 7 days, bulbocavernosus muscles weight
[5] = 0.1 mg/rat/po, 7 days, seminal vesicles weight
[6] = 0.1 mg/rat/po, 7 days, ventral prostate weight
[7] = read-out: Shionogi Antiandrogenic Activity IC50, DHT (0.3 nM)-stimulated cell number
[8] = DHT (0.3 nM)-stimulated cell number, read-out: Shionogi Antiandrogenic Activity IC50

SMILES | Human Androgen Receptor Binding RBA (%) R1881 = 100 ([1]; […]) [%] | CX Agonistic activity % Stimulation Bulbo [2, 4] | CX Agonistic activity % Stimulation SV [2, 5] | CX Agonistic activity % Stimulation Prostate [2, 6] | IC50 [3, 7] [nM] | Human Androgen Receptor Binding RBA (%) R1881 = 100 ([1]; transfected cells) [%] | IC50 [3, 8] [nM] | times more potent than OH-flutamide on the human AR (RBA ratio) ([1]; versus hydroxyflutamide) [times] | % of stimulation at 10^−7M on basal Shionogi cells ([3]; basal (no DHT), 10^−7M) [%] | CX Agonistic activity % Stimulation Bulbo ([2]; 0.02 mg/rat po) | CX Agonistic activity % Stimulation Prostate ([2]; 0.02 mg/rat po) | CX Agonistic activity % Stimulation SV ([2]; 0.02 mg/rat po)
Cc1c(N2C(=O)N(CCCOc3ccc(-c4ccncc4F)cc3)C(C)(C)C2=O)ccc(C#N)c1Cl [EM-9311] | 89.0 | 119 ± 8 (n = 2) % | 24 ± 3 (n = 2) % | 39 ± 1 (n = 2) % | > 100 |  |  |  |  |  |  | 
Cc1ccc2cc(OCCCN3C(=O)N(c4ccc(C#N)c(C(F)(F)F)c4)C(=O)C3(C)C)ccc2n1 [EM-9090] | 2.5 | 11% | 0% | 1% | 33.1 |  |  |  |  |  |  | 
CC1(C)C(=O)N(c2ccc(C#N)c(C(F)(F)F)c2)C(=S)N1CCCOc1ccc2cnccc2c1 [EM-9021] | 166.8 | 9% | 0% | 1% | 5 |  |  |  |  |  |  | 
Cc1c(N2C(=O)C(C)(C)N(CCCOc3ccc(-c4ccncc4F)cc3)C2=S)ccc(C#N)c1C(F)(F)F [EM-8974] | 41.9 | 139% | 24% | 61% | 112 |  |  |  |  |  |  | 
Cc1c(N2C(=O)N(CCCOc3ccc(-c4cc[n+]([O-])cc4)c(C(F)(F)F)c3)C(C)(C)C2=O)ccc(C#N)c1Cl [EM-9334] | 17.8 | 86% | 17% | 30% | 28.9 |  |  |  |  |  |  | 
Cc1c(N2C(=O)C(C)(C)N(CCCOc3ccc(-c4ccncc4)nc3)C2=S)ccc(C#N)c1Cl [EM-8827] | 113 | 133% | 38% | 41% | 118 ± 14 |  |  |  |  |  |  | 
Cc1c(N2C(=O)C(C)(C)N(CCCOc3ccc(-c4ccnc(F)c4)cc3)C2=S)ccc(C#N)c1Cl [EM-8922] | 414 | 134% | 54% | 52% | 79 |  |  |  |  |  |  | 
Cc1c(N2C(=O)N(CCCOc3ccc4ccc[n+]([O-])c4c3)C(C)(C)C2=O)ccc(C#N)c1Cl [EM-9302] | 1.3 | 57% | 8% | 29% | 110 |  |  |  |  |  |  | 
Cc1c(N2C(=O)C(C)(C)N(CCCOc3ccc(-c4ccncc4)c(F)c3)C2=S)ccc(C#N)c1C(F)(F)F [EM-8797] |  | 143% | 58% | 50% |  | 400 | 108 |  |  |  |  | 
Cc1c(N2C(=O)C(C)(C)N(CCCOc3ccc4cccnc4c3)C2=S)ccc(C#N)c1Cl [EM-8730] |  | 178% | 73% | 59% |  | 140.5 | 105 |  |  |  |  | 
Cc1c(N2C(=O)N(CCCOc3ccc(-c4ccncc4)cc3C(F)(F)F)C(C)(C)C2=O)ccc(C#N)c1Cl [EM-9309] | 157 | 107±9% and 107 ± 9 (n = 2) % | 24 ± 2 (n = 2) % | 36 ± 1 (n = 2) % | 66.9 |  |  | 748 | 13 |  |  | 
Cc1c(N2C(=O)C(C)(C)N(CCCOc3ccc(-c4cc[n+]([O-])cc4)c(Cl)c3)C2=S)ccc(C#N)c1Cl [EM-9036] | 131 |  |  |  | > 100 |  |  |  |  | 142 (0.02 mg/rat) % | 24 (0.02 mg/rat) % | 24 (0.02 mg/rat) %
